Assay results taken from ChEMBL document CHEMBL1133519, “Novel design of nonpeptide AVP V(2) receptor agonists: structural requirements for an agonist having 1-(4-aminobenzoyl)-2,3,4, 5-tetrahydro-1H-1-benzazepine as a template” (J Med Chem, 2000).

biological target: T1, Vasopressin V2 receptor (Rattus norvegicus, UniProt Q00788); assay: Binding affinity towards rat Vasopressin V2 receptor
T1 sequence (Q00788 whole entry): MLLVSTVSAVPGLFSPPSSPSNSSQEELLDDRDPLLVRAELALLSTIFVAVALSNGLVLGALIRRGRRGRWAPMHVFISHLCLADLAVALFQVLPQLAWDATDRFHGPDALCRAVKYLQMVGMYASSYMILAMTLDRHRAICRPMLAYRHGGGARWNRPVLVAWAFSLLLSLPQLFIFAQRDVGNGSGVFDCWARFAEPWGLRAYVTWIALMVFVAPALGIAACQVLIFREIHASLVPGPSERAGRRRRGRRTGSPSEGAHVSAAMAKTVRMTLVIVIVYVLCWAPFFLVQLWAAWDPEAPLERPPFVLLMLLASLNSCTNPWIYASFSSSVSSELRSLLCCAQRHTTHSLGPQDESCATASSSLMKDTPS

IC50 [µM]	SMILES
0.15	O=C(c1ccc(N2CCCC2)cc1Cl)N1CCCCc2ccccc21

biological target: Vasopressin V1a receptor (Rattus norvegicus, UniProt P30560); assay: Binding affinity towards rat Vasopressin V1a receptor […]
Sequence (P30560 whole entry): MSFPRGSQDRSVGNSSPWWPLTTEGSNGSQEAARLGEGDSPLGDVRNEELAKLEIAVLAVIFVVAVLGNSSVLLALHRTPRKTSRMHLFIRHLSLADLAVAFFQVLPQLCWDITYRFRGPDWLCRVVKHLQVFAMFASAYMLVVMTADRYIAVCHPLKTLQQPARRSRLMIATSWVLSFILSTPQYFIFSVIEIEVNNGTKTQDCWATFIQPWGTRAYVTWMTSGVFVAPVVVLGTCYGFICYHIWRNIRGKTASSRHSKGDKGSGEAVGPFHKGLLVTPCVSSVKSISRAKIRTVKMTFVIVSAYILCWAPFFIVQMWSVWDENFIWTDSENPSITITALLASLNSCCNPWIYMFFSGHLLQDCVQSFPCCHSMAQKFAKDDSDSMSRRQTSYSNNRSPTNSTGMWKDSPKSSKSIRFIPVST

IC50 [µM]	SMILES
5.1	Cc1ccccc1OCC(=O)Nc1ccc(C(=O)N2CCCCc3cc(Cl)ccc32)c(C)c1

biological target: Vasopressin V1a receptor (Homo sapiens, UniProt P37288); assay: Binding affinity towards Vasopressin V1a receptor in human liver
Sequence (P37288 whole entry): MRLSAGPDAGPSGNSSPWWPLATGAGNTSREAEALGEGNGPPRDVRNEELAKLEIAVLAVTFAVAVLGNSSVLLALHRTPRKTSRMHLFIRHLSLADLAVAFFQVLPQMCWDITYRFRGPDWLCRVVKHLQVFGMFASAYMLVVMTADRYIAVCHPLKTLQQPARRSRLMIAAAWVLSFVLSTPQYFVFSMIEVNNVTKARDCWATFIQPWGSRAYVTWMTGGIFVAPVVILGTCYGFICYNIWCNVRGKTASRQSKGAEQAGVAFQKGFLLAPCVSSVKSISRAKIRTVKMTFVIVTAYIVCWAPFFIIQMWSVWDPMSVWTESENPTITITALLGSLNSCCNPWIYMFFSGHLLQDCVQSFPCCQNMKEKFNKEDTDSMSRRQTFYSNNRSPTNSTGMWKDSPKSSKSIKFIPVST

SMILES	Ki [µM]
CC(=O)NCCCOc1ccc(C(=O)N2CCC(N3C(=O)CCc4ccccc43)CC2)cc1	14

biological target: not listed separately; assay: Binding affinity towards AVP receptor

Ki [µM]	SMILES
0.00079	Cc1ccccc1C(=O)Nc1ccc(C(=O)N2CCCC(O)c3cc(Cl)ccc32)c(C)c1 (stereo not drawn) [TOLVAPTAN]

biological target: T2, Vasopressin V2 receptor (Homo sapiens, UniProt P30518); assay: Concentration which inhibit [3H]AVP binding to human Vasopressin V2 receptor coded HeLa cells by 50%; assay type: cell-based
T2 sequence (P30518 whole entry): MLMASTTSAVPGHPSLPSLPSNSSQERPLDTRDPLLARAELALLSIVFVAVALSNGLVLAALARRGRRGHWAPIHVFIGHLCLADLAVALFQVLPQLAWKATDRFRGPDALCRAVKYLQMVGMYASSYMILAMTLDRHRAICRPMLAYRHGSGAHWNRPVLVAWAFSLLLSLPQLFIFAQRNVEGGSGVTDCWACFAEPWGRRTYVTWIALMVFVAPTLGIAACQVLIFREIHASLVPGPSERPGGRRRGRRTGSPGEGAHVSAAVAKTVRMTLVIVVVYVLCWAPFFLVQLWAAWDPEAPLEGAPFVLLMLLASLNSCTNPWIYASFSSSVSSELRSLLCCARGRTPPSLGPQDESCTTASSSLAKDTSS

IC50 [µM]	SMILES
0.00095	Cc1ccccc1OCC(=O)Nc1ccc(C(=O)N2CCCCc3cc(Cl)ccc32)c(C)c1

biological target: T2, Vasopressin V2 receptor; assay: Inhibition of [3H]AVP binding to human Vasopressin V2 receptor expressed in HeLa cells; assay type: cell-based

SMILES	IC50 [µM]
O=C(c1ccc(N2CCCC2)cc1Cl)N1CCCCc2cc(Cl)ccc21	0.016
CC1CCN(c2ccc(C(=O)N3CCCCc4ccccc43)c(Cl)c2)C1 (stereo not drawn)	0.051
O=C(c1ccc(N2CCCC2)cc1)N1CCCCc2ccccc21	1
O=C(c1ccc(-n2cccc2)cc1)N1CCCCc2ccccc21	0.32
O=C(c1ccc(N2CCCC2)cc1Cl)N1CCCCc2ccccc21	0.009
CCN(CC)c1ccc(C(=O)N2CCCCc3ccccc32)c(Cl)c1	0.019
CCCCCNc1ccc(C(=O)N2CCCCc3ccccc32)c(Cl)c1	0.031
Nc1ccc(C(=O)N2CCCCc3ccccc32)cc1	0.18
O=C(c1ccc(N2CCCC2)cc1)N1CCCCc2cc(Cl)ccc21	0.21
O=C(c1ccc(N2CCCCC2)cc1Cl)N1CCCCc2ccccc21	0.12

The remaining lines, values ahead:

IC50 [µM]	SMILES
0.0041	Cc1cc(N)ccc1C(=O)N1CCCCc2cc(Cl)ccc21
0.022	CCCCNc1ccc(C(=O)N2CCCCc3ccccc32)c(Cl)c1
0.0059	C=CCNc1ccc(C(=O)N2CCCCc3ccccc32)c(Cl)c1
0.0075	O=C(c1ccc(-n2cccc2)cc1Cl)N1CCCCc2ccccc21
0.018	CCCNc1ccc(C(=O)N2CCCCc3ccccc32)c(Cl)c1
0.005	CCNc1ccc(C(=O)N2CCCCc3cc(Cl)ccc32)c(Cl)c1
0.013	Cc1ccn(-c2ccc(C(=O)N3CCCCc4ccccc43)c(Cl)c2)n1
0.013	CN(C)c1ccc(C(=O)N2CCCCc3cc(Cl)ccc32)c(Cl)c1
0.0088	O=C(c1ccc(-n2cccn2)cc1Cl)N1CCCCc2ccccc21
0.035	CNc1ccc(C(=O)N2CCCCc3ccccc32)c(Cl)c1
0.034	CCNc1ccc(C(=O)N2CCCCc3ccccc32)c(Cl)c1
0.018	CN(C)c1ccc(C(=O)N2CCCCc3ccccc32)c(Cl)c1

biological target: T1, Vasopressin V2 receptor; assay: Binding affinity towards rat Vasopressin V2 receptor in vitro

IC50 [µM]	SMILES
0.038	Cc1ccccc1OCC(=O)Nc1ccc(C(=O)N2CCCCc3cc(Cl)ccc32)c(C)c1
